Where “and” joins values, the source holds several entries; their conditions need not be identical. Equal entries are not always repeated. Toxic doses and inconclusive results are not listed. The calls were made as follows: active = survival T/C of 150% or more; inactive = T/C below 125% in these data.
Tested on: CD2F1 mice, L1210 leukemia ip, survival T/C
Assay: NCI In Vivo Anticancer Drug Screen. Data for tumor model L1210 Leukemia (intraperitoneal) in CD2F1 (CDF1) mice
Settings: higher = longer survival
Outline: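 Transplantable tumor in mice; compound-treated vs vehicle-treated groups. Read-out = treated/control ratio of the measured endpoint.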

[1] = endpoint: mean survival time, dose: 100.0 mg/kg/injection, schedule: Q01DX001 (ip), vehicle: saline with Tween-80
[2] = endpoint: mean survival time, dose: 200.0 mg/kg/injection, schedule: Q01DX001 (ip), vehicle: saline with Tween-80
[3] = endpoint: mean survival time, dose: 400.0 mg/kg/injection, schedule: Q01DX001 (ip), vehicle: saline with Tween-80
[4] = endpoint: mean survival time, dose: 50.0 mg/kg/injection, schedule: Q04DX003 (ip), vehicle: saline
[5] = endpoint: mean survival time, dose: 100.0 mg/kg/injection, schedule: Q04DX003 (ip), vehicle: saline with Tween-80
[6] = endpoint: mean survival time, dose: 100.0 mg/kg/injection, schedule: Q04DX003 (ip), vehicle: saline
[7] = endpoint: mean survival time, dose: 200.0 mg/kg/injection, schedule: Q04DX003 (ip), vehicle: saline with Tween-80
[8] = endpoint: mean survival time, dose: 200.0 mg/kg/injection, schedule: Q04DX003 (ip), vehicle: saline
[9] = endpoint: mean survival time, dose: 400.0 mg/kg/injection, schedule: Q04DX003 (ip), vehicle: saline with Tween-80
[10] = endpoint: mean survival time, dose: 400.0 mg/kg/injection, schedule: Q04DX003 (ip), vehicle: saline

Measured: T/C

Cc1ccc(S(=O)(=O)N=N/C=C2/C=CC=CN2O)cc1
inactive: endpoint: mean survival time, dose: 20.0 mg/kg/injection, schedule: Q01DX009 (ip), vehicle: Klucel (hydroxypropylcellulose) (HPC) 105 % of control | endpoint: mean survival time, dose: 40.0 mg/kg/injection, schedule: Q01DX009 (ip), vehicle: Klucel (hydroxypropylcellulose) (HPC) 108 % of control | endpoint: mean survival time, dose: 45.0 mg/kg/injection, schedule: Q01DX009 (ip), vehicle: Klucel (hydroxypropylcellulose) (HPC) 114 % of control | endpoint: mean survival time, dose: 87.5 mg/kg/injection, schedule: Q01DX009 (ip), vehicle: Klucel (hydroxypropylcellulose) (HPC) 121 % of control

Cc1nc(N)[nH]c(=O)c1CCCNCc1ccncc1
inactive: [1] 87 % of control | [2] 91 % of control | [3] 90 % of control

O=C1CCC(Cl)S(=O)(=O)c2ccccc21 (stereo not given)
inactive: [1] 97 % of control | [2] 105 % of control | [3] 94 % of control

CC(=O)OC1C(OC(C)=O)C2C(C)(C)CCCC2(C)C2Cc3occc3C(C)C12 (stereo not given)
inactive: endpoint: mean survival time, dose: 50.0 mg/kg/injection, schedule: Q04DX003 (ip), vehicle: saline with Tween-80 96 % of control | [4] 102 % of control | [5] 98 % of control | [6] 98 % of control | [7] 96 % of control | [8] 96 % of control | [9] 91 % of control | [10] 96 % of control

CCN(CC)S(=O)(=O)c1ccccc1
inactive: endpoint: mean survival time, dose: 50.0 mg/kg/injection, schedule: Q01DX009 (ip), vehicle: Klucel (hydroxypropylcellulose) (HPC) 93 % of control | endpoint: mean survival time, dose: 100.0 mg/kg/injection, schedule: Q01DX009 (ip), vehicle: Klucel (hydroxypropylcellulose) (HPC) 104 % of control | endpoint: mean survival time, dose: 200.0 mg/kg/injection, schedule: Q01DX009 (ip), vehicle: Klucel (hydroxypropylcellulose) (HPC) 96 % of control

CCCCCCCCCCCCCCCCOc1ccccc1CNc1cccc(S(=O)(=O)F)c1
inactive: endpoint: mean survival time, dose: 100.0 mg/kg/injection, schedule: Q01DX009 (ip), vehicle: saline with Tween-80 94 % of control | [5] 95 % of control | endpoint: mean survival time, dose: 200.0 mg/kg/injection, schedule: Q01DX009 (ip), vehicle: saline with Tween-80 91 % of control | [7] 94 % of control | endpoint: mean survival time, dose: 400.0 mg/kg/injection, schedule: Q01DX009 (ip), vehicle: saline with Tween-80 87 % of control | [9] 100 % of control

COC(=O)CCCCC(=O)OC
inactive: [5] 96 % of control | [7] 102 % of control | [9] 102 % of control

C#CC(OC(C)=O)C1OC(n2cnc3c(Cl)nc(Cl)nc32)C(OC(C)=O)C1OC(C)=O (stereo not given)
inactive: endpoint: median survival time, dose: 12.5 mg/kg/injection, schedule: Q01DX005 (ip), vehicle: distilled water + Tween-80 109 % of control and 103 % of control | endpoint: median survival time, dose: 25.0 mg/kg/injection, schedule: Q01DX005 (ip), vehicle: distilled water + Tween-80 107 % of control and 100 % of control | endpoint: median survival time, dose: 50.0 mg/kg/injection, schedule: Q01DX005 (ip), vehicle: distilled water + Tween-80 103 % of control | endpoint: median survival time, dose: 100.0 mg/kg/injection, schedule: Q01DX005 (ip), vehicle: distilled water + Tween-80 108 % of control and 111 % of control | endpoint: median survival time, dose: 200.0 mg/kg/injection, schedule: Q01DX005 (ip), vehicle: distilled water + Tween-80 102 % of control and 111 % of control

O=S(CCCl)CCCl
inactive: endpoint: mean survival time, dose: 0.5 mg/kg/injection, schedule: Q01DX009 (ip), vehicle: Klucel (hydroxypropylcellulose) (HPC) 93 % of control | endpoint: mean survival time, dose: 0.5 mg/kg/injection, schedule: Q04DX003 (ip), vehicle: Klucel (hydroxypropylcellulose) (HPC) 98 % of control | endpoint: mean survival time, dose: 1.0 mg/kg/injection, schedule: Q01DX009 (ip), vehicle: Klucel (hydroxypropylcellulose) (HPC) 101 % of control | endpoint: mean survival time, dose: 1.0 mg/kg/injection, schedule: Q04DX003 (ip), vehicle: Klucel (hydroxypropylcellulose) (HPC) 100 % of control | endpoint: mean survival time, dose: 1.56 mg/kg/injection, schedule: Q01DX009 (ip), vehicle: Klucel (hydroxypropylcellulose) (HPC) 109 % of control | endpoint: mean survival time, dose: 2.0 mg/kg/injection, schedule: Q01DX009 (ip), vehicle: Klucel (hydroxypropylcellulose) (HPC) 96 % of control | endpoint: mean survival time, dose: 2.0 mg/kg/injection, schedule: Q04DX003 (ip), vehicle: Klucel (hydroxypropylcellulose) (HPC) 98 % of control | endpoint: mean survival time, dose: 3.12 mg/kg/injection, schedule: Q01DX009 (ip), vehicle: Klucel (hydroxypropylcellulose) (HPC) 100 % of control | endpoint: mean survival time, dose: 4.0 mg/kg/injection, schedule: Q01DX009 (ip), vehicle: Klucel (hydroxypropylcellulose) (HPC) 106 % of control | endpoint: mean survival time, dose: 4.0 mg/kg/injection, schedule: Q04DX003 (ip), vehicle: Klucel (hydroxypropylcellulose) (HPC) 102 % of control | endpoint: mean survival time, dose: 6.25 mg/kg/injection, schedule: Q01DX009 (ip), vehicle: Klucel (hydroxypropylcellulose) (HPC) 104 % of control | endpoint: mean survival time, dose: 8.0 mg/kg/injection, schedule: Q01DX009 (ip), vehicle: Klucel (hydroxypropylcellulose) (HPC) 100 % of control | endpoint: mean survival time, dose: 8.0 mg/kg/injection, schedule: Q04DX003 (ip), vehicle: Klucel (hydroxypropylcellulose) (HPC) 98 % of control | endpoint: mean survival time, dose: 12.5 mg/kg/injection, schedule: Q01DX009 (ip), vehicle: Klucel (hydroxypropylcellulose) (HPC) 102 % of control | endpoint: mean survival time, dose: 16.0 mg/kg/injection, schedule: Q01DX009 (ip), vehicle: Klucel (hydroxypropylcellulose) (HPC) 100 % of control | endpoint: mean survival time, dose: 16.0 mg/kg/injection, schedule: Q04DX003 (ip), vehicle: Klucel (hydroxypropylcellulose) (HPC) 100 % of control | endpoint: mean survival time, dose: 25.0 mg/kg/injection, schedule: Q01DX009 (ip), vehicle: Klucel (hydroxypropylcellulose) (HPC) 103 % of control | endpoint: mean survival time, dose: 32.0 mg/kg/injection, schedule: Q04DX003 (ip), vehicle: Klucel (hydroxypropylcellulose) (HPC) 106 % of control

Cc1ccc(NC(=O)OCCOc2ccccc2Cl)cc1[N+](=O)[O-]
inactive: endpoint: mean survival time, dose: 12.5 mg/kg/injection, schedule: Q01DX009 (ip), vehicle: saline with Tween-80 98 % of control | endpoint: mean survival time, dose: 25.0 mg/kg/injection, schedule: Q01DX009 (ip), vehicle: saline with Tween-80 103 % of control | endpoint: mean survival time, dose: 50.0 mg/kg/injection, schedule: Q01DX009 (ip), vehicle: saline with Tween-80 88 % of control and 103 % of control

O=C(O)C[As](=O)(O)O
inactive: endpoint: mean survival time, dose: 15.0 mg/kg/injection, schedule: Q01DX009 (ip), vehicle: saline 100 % of control | endpoint: mean survival time, dose: 30.0 mg/kg/injection, schedule: Q01DX009 (ip), vehicle: saline 108 % of control | endpoint: mean survival time, dose: 60.0 mg/kg/injection, schedule: Q01DX009 (ip), vehicle: saline 91 % of control

Nc1cc(Cl)cc2c1-c1ccc(Cl)cc1C2Br (stereo not given)
inactive: endpoint: mean survival time, dose: 50.0 mg/kg/injection, schedule: Q01DX001 (ip), vehicle: carboxymethylcellulose (CMC) 102 % of control | endpoint: mean survival time, dose: 100.0 mg/kg/injection, schedule: Q01DX001 (ip), vehicle: carboxymethylcellulose (CMC) 108 % of control | endpoint: mean survival time, dose: 200.0 mg/kg/injection, schedule: Q01DX001 (ip), vehicle: carboxymethylcellulose (CMC) 108 % of control | endpoint: mean survival time, dose: 400.0 mg/kg/injection, schedule: Q01DX001 (ip), vehicle: carboxymethylcellulose (CMC) 108 % of control

NS(=O)(=O)c1cccc([As](=O)(O)O)c1
inactive: [4] 105 % of control | [6] 95 % of control | [8] 94 % of control

COc1cccc(CCNc2ccncc2N)c1
inactive: endpoint: mean survival time, dose: 75.0 mg/kg/injection, schedule: Q01DX001 (ip), vehicle: saline 96 % of control

O=[N+]([O-])c1cccc(S(=O)(=O)O)c1.[Fe]
inactive: endpoint: mean survival time, dose: 50.0 mg/kg/injection, schedule: Q01DX009 (ip), vehicle: saline 103 % of control | endpoint: mean survival time, dose: 100.0 mg/kg/injection, schedule: Q01DX009 (ip), vehicle: saline 91 % of control

OC1CCN(c2c3ccccc3nc3ccccc23)CC1
inactive: endpoint: mean survival time, dose: 12.5 mg/kg/injection, schedule: Q04DX002 (ip), vehicle: saline 100 % of control | endpoint: mean survival time, dose: 25.0 mg/kg/injection, schedule: Q04DX002 (ip), vehicle: saline 100 % of control | endpoint: mean survival time, dose: 50.0 mg/kg/injection, schedule: Q04DX002 (ip), vehicle: saline 116 % of control

CN(C)c1ccc(N=C2CC(=Nc3ccc(N(C)C)cc3)c3ccccc3C2=O)cc1
inactive: [6] 104 % of control | [8] 96 % of control | [10] 101 % of control

Reference: PubChem BioAssay AID256 (DTP/NCI, 2004)
